{"source": "patent US20260272871A1", "about": "“USE OF RETINOIC ACID RECEPTOR ACTIVATOR AND COMPOSITION THEREOF IN REGENERATION AND REPAIR OF MAMMALS” (INSTITUTE OF ZOOLOGY, CHINESE ACADEMY OF SCIENCES, priority 2022, published 2026)", "key": {"[1]": {"system": "2 mm diameter mouse ear hole", "experiment": "2 mm ear hole trauma mouse model (ear hole closure)", "assay_type": "in vivo, C57BL/6 mice", "details": "for healing of 2 mm ear holes by inhibitors of ferroptosis and autophagy: 10-20 mg/kg, measured 21 days after damage, vs DMSO and CHX, FIG. 3; for ear hole regeneration (healing) on interfering with potential RA targets: 10 or 20 mg/kg per reagent, 21 days after the trauma, FIG. 5B"}, "[2]": {"system": "4 mm diameter mouse ear hole", "set-up": "species or system mice", "details": "in vivo"}, "[3]": {"system": "scalded skin of mice", "experiment": "Scald scar formation in mice", "assay_type": "in vivo", "details": "after 40 days of administration, after hair shaving, vs Vehicle; FIG. 7", "experimental": "Experimental method: 7-week-old mice were used and (1) mice were anesthetized by intraperitoneal injection of 0.5% pentobarbital sodium (100 μl/10 g b.w.); (2) the back was shaved, and the skin was disinfected with 75% alcohol. (3) the mice were scalded with boiling water for 10-15 seconds. The scald area was a circle with a diameter of 1.5 cm. […] (5) wound repair status was detected."}}, "note": "Entries after “also recorded” stand apart in the source; their conditions may differ."}
{"compound": "O=C1OC(COc2ccccc2[N+](=O)[O-])CC1Cc1ccccc1", "note": "(stereo not shown) [3BDO]", "values": [{"measurement": "healing of 2 mm ear holes by inhibitors of ferroptosis and autophagy", "setting": "[1]", "result": "Neither inhibitors of ferroptosis nor autophagy could promote the healing of the ear hole like CHX"}]}
{"compound": "Cc1ccc(C2=CCC(C)(C)c3ccc(C#Cc4ccc(C(=O)O)cc4)cc32)cc1", "note": "[AGN193109]", "values": [{"measurement": "effect of RAR inhibitor on CHX-induced ear hole healing", "setting": "[1]; CHX 20 mg/kg + AGN 0.75 mg/kg i.p., 21 days after damage, FIG. 4", "result": "completely inhibit the healing of the ear holes induced by CHX"}, {"measurement": "effect of RAR inhibitor on the coordinated effect of CHX+RA", "setting": "[1]; CHX 20 mg/kg + RA 5 mg/kg + AGN 0.75 mg/kg i.p., 21 days after damage, FIG. 4", "result": "could still be inhibited"}]}
{"compound": "COc1ccc(C[C@H]2NC[C@H](O)[C@H]2OC(C)=O)cc1", "note": "[Ani, Anisomycin]", "values": [{"measurement": "healing of the 2 mm ear hole", "setting": "[1]; mouse, in vivo", "result": "could significantly promote the healing of the ear hole"}]}
{"compound": "Cc1cc(Nc2cc(Cl)nc(Oc3ccc([N+](=O)[O-])cc3)n2)n[nH]1", "note": "[Autophinib]", "values": [{"measurement": "healing of 2 mm ear holes by inhibitors of ferroptosis and autophagy", "setting": "[1]", "result": "Neither inhibitors of ferroptosis nor autophagy could promote the healing of the ear hole like CHX"}]}
{"compound": "C[C@@H]1C[C@@H]([C@H](O)CC2CC(=O)NC(=O)C2)C(=O)[C@@H](C)C1", "note": "[CHX, 4-((R)-2-((1S,3S,5S)-3,5-dimethyl-2-oxocyclohexyl)-2-hydroxyethyl)piperidine-2,6-dione]", "values": [{"measurement": "closure of 4 mm diameter ear holes", "setting": "[2]", "result": "promoted the shrinkage of ear hole wounds, but could not completely close them; also recorded: complete closure of the ear holes could be achieved"}, {"measurement": "wound area of the 4 mm mouse ear hole", "setting": "[2]", "result": "significantly reduced"}, {"measurement": "HE staining of auricle tissue 180 days after ear hole closure", "setting": "[1]; mouse, in vivo", "result": "regeneration of tissues and tissue derivatives such as hair follicles, glands, cartilage, muscles and blood vessels"}, {"measurement": "HE staining of mouse auricle tissue", "setting": "[1]; mouse, in vivo", "result": "the trauma had completely healed"}, {"measurement": "HE staining of mouse auricle tissue, 15th day", "setting": "[1]; mouse, in vivo", "result": "healed the tissue after damage and formed granulation tissue"}, {"measurement": "KI67 immunohistochemical staining of mouse auricle tissue", "setting": "[1]; mouse, in vivo", "result": "expressed a large amount of KI67"}, {"measurement": "concentration (dose) above which the ear hole wound was completely closed", "setting": "[1]; mouse, in vivo", "result": "greater than 8 mg/kg"}, {"measurement": "dose dependence of promotion of 2 mm ear hole healing", "setting": "[1]; mouse, in vivo", "result": "dose-dependent"}, {"measurement": "effect of different administration manners on ear hole healing", "setting": "[1]; mouse, in vivo", "result": "different manners of administration had the effect of promoting regeneration"}, {"measurement": "healing condition of 2 mm ear hole (photograph)", "setting": "[1]; mouse, in vivo", "result": "had completely closed"}, {"measurement": "healing of the 2 mm ear hole", "setting": "[1]; mouse, in vivo", "result": "could significantly promote the healing of the ear hole; also recorded: the healing effect of CHX was better"}, {"measurement": "closure of 2 mm diameter ear holes at different concentrations of CHX", "setting": "[1]; mouse, in vivo, ip", "result": "promoted the closure"}]}
{"compound": "CC1=C(/C=C/C(C)=C/C=C/C(C)=C/C(=O)O)C(C)(C)CCC1", "note": "[RA, all-trans retinoic acid]", "values": [{"measurement": "scar area after scald", "setting": "[3]", "result": "significantly reduce the scar area"}, {"measurement": "closure of the ear hole with RA alone", "setting": "[1]; RA 5 mg/kg, 20 mg/kg vs DMSO, 21 days after ear hole damage, FIG. 5A", "result": "promote the closure of the ear hole in a dose-dependent manner"}]}
{"compound": "CCC(CC)C(c1ccc(Nc2nc3ccccc3s2)cc1)n1cncn1", "note": "(stereo not shown) [Talarozole]", "values": [{"measurement": "ear hole regeneration (healing) on interfering with potential RA targets", "setting": "[1]", "result": "could also promote ear hole regeneration"}]}
{"compound": "O=S(=O)(NCCN1CCNCC1)c1ccc(NC2CCCCC2)c(NCc2ccccc2)c1", "note": "[UAMC-3203]", "values": [{"measurement": "healing of 2 mm ear holes by inhibitors of ferroptosis and autophagy", "setting": "[1]", "result": "Neither inhibitors of ferroptosis nor autophagy could promote the healing of the ear hole like CHX"}]}
{"compound": "CC1=C(/C=C/C(C)=C/C=C/C(C)=C/CO)C(C)(C)CCC1", "note": "[vitamin A]", "values": [{"measurement": "ear hole regeneration (healing) on interfering with potential RA targets", "setting": "[1]", "result": "could also promote ear hole regeneration"}]}
